Experimental data reported in patent publication US9388179B2, “N-substituted indazole sulfonamide compounds with selective activity in voltage-gated sodium channels” (Merck Sharp & Dohme Corp., priority 2012, dated 2016).
pIC50: −log10 of the molar value.

How the values were obtained:
Assay type in all cases: cell-based
[1] = target: T1, human Nav1.7 channels stably expressed in HEK 293 cells (Homo sapiens, UniProt Q15858); experiment: PatchXpress 7000 automated patch-clamp, inactivated state block; settings: PatchXpress technique; read-out: Nav 1.7 potency
T1 construct: expressed in transfected cells; host or cells: HEK 293
T1 sequence (Q15858 whole entry): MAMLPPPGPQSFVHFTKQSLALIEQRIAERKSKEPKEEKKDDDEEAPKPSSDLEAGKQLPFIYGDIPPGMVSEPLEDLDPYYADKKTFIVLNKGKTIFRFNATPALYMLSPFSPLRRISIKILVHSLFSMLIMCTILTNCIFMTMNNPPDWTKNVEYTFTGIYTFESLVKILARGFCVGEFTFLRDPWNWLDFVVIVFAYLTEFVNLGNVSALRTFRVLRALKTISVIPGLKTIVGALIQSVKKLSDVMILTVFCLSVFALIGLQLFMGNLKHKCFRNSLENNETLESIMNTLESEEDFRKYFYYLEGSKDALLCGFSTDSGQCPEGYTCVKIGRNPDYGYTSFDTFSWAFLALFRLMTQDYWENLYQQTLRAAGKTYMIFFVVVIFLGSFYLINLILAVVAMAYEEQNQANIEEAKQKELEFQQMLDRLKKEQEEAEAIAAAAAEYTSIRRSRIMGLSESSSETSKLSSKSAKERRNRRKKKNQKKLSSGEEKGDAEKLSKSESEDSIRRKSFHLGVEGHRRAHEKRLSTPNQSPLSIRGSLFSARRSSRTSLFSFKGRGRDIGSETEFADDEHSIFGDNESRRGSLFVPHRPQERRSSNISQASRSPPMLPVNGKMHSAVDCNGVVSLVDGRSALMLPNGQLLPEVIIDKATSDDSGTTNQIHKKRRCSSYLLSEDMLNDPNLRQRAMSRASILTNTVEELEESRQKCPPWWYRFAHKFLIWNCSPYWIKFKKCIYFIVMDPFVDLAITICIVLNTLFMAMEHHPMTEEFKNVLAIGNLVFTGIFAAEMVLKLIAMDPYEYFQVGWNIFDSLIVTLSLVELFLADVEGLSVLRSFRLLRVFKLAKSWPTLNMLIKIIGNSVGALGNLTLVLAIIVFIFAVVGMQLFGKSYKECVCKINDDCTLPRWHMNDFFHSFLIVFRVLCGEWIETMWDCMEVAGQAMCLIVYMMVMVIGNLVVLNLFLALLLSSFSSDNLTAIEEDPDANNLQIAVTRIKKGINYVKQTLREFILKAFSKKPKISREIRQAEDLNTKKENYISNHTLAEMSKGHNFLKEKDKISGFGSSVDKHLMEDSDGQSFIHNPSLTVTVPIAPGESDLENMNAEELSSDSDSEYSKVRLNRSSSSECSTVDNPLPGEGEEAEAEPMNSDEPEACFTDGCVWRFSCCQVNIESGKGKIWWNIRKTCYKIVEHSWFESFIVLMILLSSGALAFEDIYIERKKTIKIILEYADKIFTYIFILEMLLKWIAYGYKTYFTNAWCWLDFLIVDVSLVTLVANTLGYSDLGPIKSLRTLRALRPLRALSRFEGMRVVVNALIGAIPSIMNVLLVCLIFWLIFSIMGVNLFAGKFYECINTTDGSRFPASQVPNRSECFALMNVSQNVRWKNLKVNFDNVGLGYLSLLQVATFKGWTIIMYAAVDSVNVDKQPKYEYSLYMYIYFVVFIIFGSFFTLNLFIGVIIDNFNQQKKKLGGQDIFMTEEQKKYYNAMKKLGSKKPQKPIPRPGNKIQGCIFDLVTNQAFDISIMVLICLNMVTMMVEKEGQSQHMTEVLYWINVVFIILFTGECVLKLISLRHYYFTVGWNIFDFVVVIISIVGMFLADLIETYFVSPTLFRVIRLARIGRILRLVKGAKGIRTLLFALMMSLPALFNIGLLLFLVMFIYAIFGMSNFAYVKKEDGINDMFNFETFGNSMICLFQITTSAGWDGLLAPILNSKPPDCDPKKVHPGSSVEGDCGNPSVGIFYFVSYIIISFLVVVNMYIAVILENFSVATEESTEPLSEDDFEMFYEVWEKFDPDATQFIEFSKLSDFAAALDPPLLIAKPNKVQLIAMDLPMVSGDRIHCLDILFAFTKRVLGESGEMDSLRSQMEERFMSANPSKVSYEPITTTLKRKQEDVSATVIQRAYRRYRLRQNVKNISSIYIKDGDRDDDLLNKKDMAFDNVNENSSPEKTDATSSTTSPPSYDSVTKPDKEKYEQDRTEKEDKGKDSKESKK
Description: (§1) For all electrophysiology experiments, offline analysis was used to correct for current rundown and to determine percent inhibition as a function of drug concentration. IC50 values were determined by fitting to the Hill equation.
(§2) Sodium Current Measurements on the PatchXpress 7000®:
(§3) To measure inactivated state block of sodium channels, test compounds were characterized in an automated PatchXpress® assay (Molecular Devices) using a double-pulse protocol on human Nav1.7 and Nav1.5 channels stably expressed in HEK 293 cells. Cells were held at a potential 20 mV negative to V0.5 inact. An 8000 ms pre-pulse 7 mV positive to V0.5 inact was given followed by a hyperpolarizing 2 ms pulse to −120 mV and a 20 ms test pulse to −20 mV. Protocol was applied to cells in the absence, presence of compound and after washout. The temperature of PatchXpress instruments was maintained at 22° C. The following recording solutions were used. Internal solution (mM): 30 CsCl, 5 HEPES, 10 EGTA, 120 CsF, 5 NaF, 2 MgCl2. External solution (mM): 120 NMDG, 40 NaCl, 1 KCl, 0.5 MgCl2, 5 HEPES, 2.7 CaCl2.

[2] = target: T2, human Nav1.5 channels stably expressed in HEK 293 cells (Homo sapiens, UniProt Q14524); experiment: as above; settings: PatchXpress technique
T2 construct: expressed in transfected cells; host or cells: HEK 293
T2 sequence (Q14524 whole entry): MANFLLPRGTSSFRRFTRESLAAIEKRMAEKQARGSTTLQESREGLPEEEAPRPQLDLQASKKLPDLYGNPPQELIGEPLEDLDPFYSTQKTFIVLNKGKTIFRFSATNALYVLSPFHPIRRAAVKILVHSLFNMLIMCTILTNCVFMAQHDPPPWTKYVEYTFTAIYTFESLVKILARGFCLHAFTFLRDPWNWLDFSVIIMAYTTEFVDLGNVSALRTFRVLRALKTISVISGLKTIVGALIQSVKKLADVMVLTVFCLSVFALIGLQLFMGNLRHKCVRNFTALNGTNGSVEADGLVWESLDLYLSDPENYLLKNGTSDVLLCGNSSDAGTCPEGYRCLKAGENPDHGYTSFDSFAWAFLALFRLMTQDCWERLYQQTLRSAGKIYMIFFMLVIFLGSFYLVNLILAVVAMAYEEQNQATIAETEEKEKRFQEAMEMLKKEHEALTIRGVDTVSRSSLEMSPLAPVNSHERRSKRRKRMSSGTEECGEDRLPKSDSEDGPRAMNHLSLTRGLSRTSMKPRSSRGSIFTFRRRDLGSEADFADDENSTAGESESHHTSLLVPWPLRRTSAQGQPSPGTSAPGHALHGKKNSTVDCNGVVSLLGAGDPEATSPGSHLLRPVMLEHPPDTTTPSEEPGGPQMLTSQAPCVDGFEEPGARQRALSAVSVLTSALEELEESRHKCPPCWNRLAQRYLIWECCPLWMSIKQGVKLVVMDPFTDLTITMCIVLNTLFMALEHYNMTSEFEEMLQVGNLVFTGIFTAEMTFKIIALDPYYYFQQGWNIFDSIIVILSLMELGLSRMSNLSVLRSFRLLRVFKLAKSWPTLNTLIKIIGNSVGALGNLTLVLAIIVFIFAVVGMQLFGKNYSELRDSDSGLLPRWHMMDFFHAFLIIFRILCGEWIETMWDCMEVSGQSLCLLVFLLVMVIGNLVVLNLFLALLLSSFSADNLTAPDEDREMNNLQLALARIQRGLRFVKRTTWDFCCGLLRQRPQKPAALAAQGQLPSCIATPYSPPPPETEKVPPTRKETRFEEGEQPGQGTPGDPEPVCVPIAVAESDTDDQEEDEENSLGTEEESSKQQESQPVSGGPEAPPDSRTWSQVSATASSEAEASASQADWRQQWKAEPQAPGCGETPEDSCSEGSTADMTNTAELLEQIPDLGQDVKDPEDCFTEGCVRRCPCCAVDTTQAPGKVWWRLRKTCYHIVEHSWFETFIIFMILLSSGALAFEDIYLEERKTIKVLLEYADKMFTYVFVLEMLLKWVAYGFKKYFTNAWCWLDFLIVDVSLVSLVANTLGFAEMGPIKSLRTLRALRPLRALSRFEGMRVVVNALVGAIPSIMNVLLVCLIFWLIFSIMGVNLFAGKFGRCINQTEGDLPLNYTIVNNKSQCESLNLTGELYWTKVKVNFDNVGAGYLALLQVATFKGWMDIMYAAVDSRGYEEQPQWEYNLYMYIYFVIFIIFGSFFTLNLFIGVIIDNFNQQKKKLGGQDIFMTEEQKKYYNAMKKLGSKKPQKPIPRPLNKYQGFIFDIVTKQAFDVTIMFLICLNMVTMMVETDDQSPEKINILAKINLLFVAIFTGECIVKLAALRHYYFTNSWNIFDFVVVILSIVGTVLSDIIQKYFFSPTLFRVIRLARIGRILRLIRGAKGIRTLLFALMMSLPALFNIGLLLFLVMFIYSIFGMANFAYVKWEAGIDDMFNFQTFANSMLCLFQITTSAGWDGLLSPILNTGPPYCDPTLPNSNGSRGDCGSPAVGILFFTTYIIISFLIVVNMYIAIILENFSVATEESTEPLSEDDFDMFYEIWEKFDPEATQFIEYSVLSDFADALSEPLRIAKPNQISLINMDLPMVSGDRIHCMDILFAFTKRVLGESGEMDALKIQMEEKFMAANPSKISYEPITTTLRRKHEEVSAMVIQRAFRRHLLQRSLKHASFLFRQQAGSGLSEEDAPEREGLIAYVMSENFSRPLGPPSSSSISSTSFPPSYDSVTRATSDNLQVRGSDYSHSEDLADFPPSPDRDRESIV
Description: as §1, §2, §3

[3] = target: T1, human Nav1.7 channels stably expressed in HEK 293 cells; experiment: IonWorks Quattro automated patch-clamp, inactivated state block; settings: IonWorks technique; read-out: Nav 1.7 potency
Description: as §1
(§4) Cell Based Assays for Nav 1.7 and Nav 1.5 Activity
(§5) Compounds were tested on human Nav1.7 and Nav1.5 channels stably expressed in HEK 293 cells. […] Cells were sealed on a planar substrate using the Population Patch […] (PPC) technology. Electrical access was obtained using both nystatin and amphotericin. A double-pulse protocol was used for the determination of IC50 values for inactivated state block. Nav1.7 and Nav1.5 expressing cells were voltage clamped at −100 mV and −110 mV, respectively. A depolarizing prepulse to −10 mV (Nav1.7) or −30 mV (Nav1.5) for 1000 ms followed by a 10 ms repolarization to −100 mV (Nav1.7) or −110 mV (Nav1.5) was given to generate fractional channel inactivation of 50%, followed by a 10 ms test pulse to −10 mV (Nav1.7) or −30 mV (Nav1.5) to measure peak current in control conditions and after compound addition. The following recording solutions were used (mM). External: 150 NaCl, 2 CaCl2, 5 KCl, 1 MgCl2, 10 HEPES, 12 Dextrose; internal: 120 CsF, 30 CsCl, 10 EGTA, 5 HEPES, 5 NaF, 2 MgCl2.

[4] = target: T2, human Nav1.5 channels stably expressed in HEK 293 cells; experiment: as above; settings: IonWorks technique
Description: as §1, §4, §5

Compound	pIC50 [1]	Ratio 1.5:1.7 = Nav 1.5 potency (nM)/Nav1.7 potency (nM) [2]	pIC50 [3]	Ratio 1.5:1.7 = Nav 1.5 potency (nM)/Nav1.7 potency (nM) [4]
NC/C=C/c1ccccc1Cn1ncc2cc(S(=O)(=O)Nc3ncns3)c(F)cc21 [Ex-5, (E)-1-(2-(3-aminoprop-1-en-1-yl)benzyl)-6-fluoro-N-(1,2,4-thiadiazol-5-yl)-1H-indazole-5-sulfonamide]	7.27	560	7.47	963
C[C@H](c1ccccc1)n1ncc2cc(S(=O)(=O)Nc3ncns3)c(F)cc21 [Ex-9, 6-fluoro-1-[(1R)-1-phenylethyl]-N-1,2,4-thiadiazol-5-yl-1H-indazole-5-sulfonamide]	6.39	65	5.98	27
O=S(=O)(Nc1ncns1)c1ccc2c(cnn2Cc2ccc(Cl)cc2-c2cccc3c2CCNC3)c1 [Ex-25, 1-[4-chloro-2-(1,2,3,4-tetrahydroisoquinolin-5-yl)benzyl]-N-1,2,4-thiadiazol-5-yl-1H-indazole-5-sulfonamide]	5.54	10	5.83	23
NC/C=C/c1ccccc1Cn1ncc2cc(S(=O)(=O)Nc3ncns3)cc(Cl)c21 [Ex-63, 1-{2-[(1E)-3-aminoprop-1-en-1-yl]benzyl}-7-chloro-N-1,2,4-thiadiazol-5-yl-1H-indazole-5-sulfonamide]	–	–	5.76	> 19
O=S(=O)(Nc1ncns1)c1cc2cnn(Cc3cccc4c3CNCC4)c2cc1F [Ex-1, 6-fluoro-1-((1,2,3,4-tetrahydroisoquinolin-8-yl)methyl)-N-(1,2,4-thiadiazol-5-yl)-1H-indazole-5-sulfonamide]	6.82	310	6.97	311
O=S(=O)(Nc1ncns1)c1ccc2c(cnn2Cc2ccc(Cl)cc2C2=CCNCC2)c1 [Ex-18, 1-[4-chloro-2-(1,2,3,6-tetrahydropyridin-4-yl)benzyl]-N-1,2,4-thiadiazol-5-yl-1H-indazole-5-sulfonamide]	5.28	6	6.11	42
NC/C=C/c1cc(Cl)ccc1Cn1ncc2cc(S(=O)(=O)Nc3ncns3)ccc21 [Ex-16, 1-{2-[(1E)-3-aminoprop-1-en-1-yl]-4-chlorobenzyl}-N-1,2,4-thiadiazol-5-yl-1H-indazole-5-sulfonamide]	6.03	32	6.38	81
NC/C=C/c1ccccc1Cn1ncc2cc(S(=O)(=O)Nc3ncns3)ccc21 [Ex-15, 1-{2-[(1E)-3-aminoprop-1-en-1-yl]benzyl}-N-1,2,4-thiadiazol-5-yl-1H-indazole-5-sulfonamide]	6.90	237	6.80	207
O=S(=O)(Nc1ncns1)c1ccc2c(cnn2Cc2ccccc2)c1 [Ex-19, 1-benzyl-N-1,2,4-thiadiazol-5-yl-1H-indazole-5-sulfonamide]	5.52	6	6.07	39
C[C@H](c1cccc2c1CNCC2)n1ncc2cc(S(=O)(=O)Nc3ncns3)c(F)cc21 [Ex-6, (R)-6-fluoro-1-(1-(1,2,3,4-tetrahydroisoquinolin-8-yl)ethyl)-N-(1,2,4-thiadiazol-5-yl)-1H-indazole-5-sulfonamide]	7.03	320	7.68	1066
NC1CCc2cccc(Cn3ncc4cc(S(=O)(=O)Nc5ncns5)c(F)cc43)c2C1 (single isomer, unassigned) [Ex-13, (R or S)-1-((7-amino-5,6,7,8-tetrahydronaphthalen-1-yl)methyl)-6-fluoro-N-(1,2,4-thiadiazol-5-yl)-1H-indazole-5-sulfonamide]	8.15	2275	8.22	5406
O=S(=O)(Nc1ncns1)c1cc2cnn(Cc3ccccc3-c3cccc4c3CCNC4)c2cc1F [Ex-10, 6-fluoro-1-[2-(1,2,3,4-tetrahydroisoquinolin-5-yl)benzyl]-N-1,2,4-thiadiazol-5-yl-1H-indazole-5-sulfonamide]	6.11	38	5.96	30
O=S(=O)(Nc1ncns1)c1cc2cnn(Cc3ccccc3I)c2cc1F [Ex-7, 6-fluoro-1-(2-iodobenzyl)-N-1,2,4-thiadiazol-5-yl-1H-indazole-5-sulfonamide]	–	–	6.47	19
CN(C)CCNC(=O)c1cccc(-c2cc(Cl)ccc2Cn2ncc3cc(S(=O)(=O)Nc4ncns4)ccc32)c1 [Ex-20, 5′-chloro-N-[2-(dimethylamino)ethyl]-2′-{[5-(1,2,4-thiadiazol-5-ylsulfamoyl)-1H-indazol-1-yl]methyl}biphenyl-3-carboxamide]	–	–	6.02	34
O=S(=O)(Nc1ncns1)c1ccc2c(cnn2Cc2ccc(Cl)cc2C2=CCNCCC2)c1 [Ex-17, 1-[4-chloro-2-(2,5,6,7-tetrahydro-1H-azepin-4-yl)benzyl]-N-1,2,4-thiadiazol-5-yl-1H-indazole-5-sulfonamide]	5.35	7	6.25	59
O=S(=O)(Nc1cccc(F)n1)c1cc2cnn(Cc3cccc4c3CNCC4)c2cc1F [Ex-4, 6-fluoro-N-(6-fluoropyridin-2-yl)-1-((1,2,3,4-tetrahydroisoquinolin-8-yl)methyl)-1H-indazole-5-sulfonamide]	6.07	64	6.28	58
C[C@@H](c1cccc2c1CNCC2)n1ncc2cc(S(=O)(=O)Nc3ncns3)c(F)cc21 [Ex-64, (S)-6-fluoro-1-(1-(1,2,3,4-tetrahydroisoquinolin-8-yl)ethyl)-N-(1,2,4-thiadiazol-5-yl)-1H-indazole-5-sulfonamide]	6.08	36	6.11	42
NC1CCc2cccc(Cn3ncc4cc(S(=O)(=O)Nc5nccs5)c(F)cc43)c2C1 (single isomer, unassigned) [Ex-26, (R or S)-1-[(7-amino-5,6,7,8-tetrahydronaphthalen-1-yl)methyl]-6-fluoro-N-1,3-thiazol-2-yl-1H-indazole-5-sulfonamide]	8.30	3231	–	–
C[C@H](c1cccc2c1CNCC2)n1ncc2cc(S(=O)(=O)Nc3cccc(F)n3)c(F)cc21 [Ex-37, 6-fluoro-N-(6-fluoropyridin-2-yl)-1-[(1R)-1-(1,2,3,4-tetrahydroisoquinolin-8-yl)ethyl]-1H-indazole-5-sulfonamide]	6.43	64	–	–
O=S(=O)(Nc1ncns1)c1ccc2c(cnn2Cc2ccc(Cl)cc2C2=CC3CCC(C2)N3)c1 (stereo not shown) [Ex-21, 1-[2-(8-azabicyclo[3.2.1]oct-2-en-3-yl)-4-chlorobenzyl]-N-1,2,4-thiadiazol-5-yl-1H-indazole-5-sulfonamide]	–	–	5.90	26
C[C@H](c1cccc2c1CNCC2)n1ncc2cc(S(=O)(=O)Nc3ncc(Cl)s3)c(F)cc21 [Ex-54, N-(5-chloro-1,3-thiazol-2-yl)-6-fluoro-1-[(1R)-1-(1,2,3,4-tetrahydroisoquinolin-8-yl)ethyl]-1H-indazole-5-sulfonamide]	6.86	50	–	–
